# Test results taken from US9127233B2, “Device and method for solubilizing, separating, removing and reacting carboxylic acids in oils, fats, aqueous or organic solutions by means of micro-or nanoemulsification” (priority 2010, dated 2015).
# “And” between values parts separate entries of the source, which are not always exact repeats. Equal entries are not always repeated. Structures can show the parent of a compound that is named as a salt. Where two headings read alike, the source gives them in different places. Where a SMILES comes first, the peptide text is derived from it.
# Experiments:
# [1] = Estimation of the interaction between oleic acid and the test substance; type: physicochemical
# [2] = Estimation of solubility of the test substance in H2O; type: physicochemical
# [3] = pH of aqueous solution of solubilizing compound mixed with oleic acid; type: physicochemical; details: solubilizing compound in water with 0.833 mol equivalents of oleic acid
# [4] = Dynamic laser light scattering (DLS) of oleic acid micro-/nanoemulsions; type: physicochemical; details: for Mean Size by Intensity: DLS, emulsion with oleic acid; for Part: percentage of the peak in the sample
# [5] = log P of the test substance
# [6] = water (H2O), test substance mixed with oleic acid
Compound,Interaction with Oleic Acid [1],pH [3],Mean Size by Intensity [4] [nm],Part [4] [%],also measured
"4-(4,6-Diamino-2,2-dimethyl-2H-[1,3,5]triazine-1-yl","X, E, S",11.28,–,–,Dissolved (H2O) [2]: (X)
Nc1nc(N)nc(N)n1 [Melamine],"X, S",8.25,–,–,Dissolved (H2O) [2]: (X); logP (physchem): -0.961
CC(=O)O.CNC(=N)NCCC[C@H](N)C(=O)O [N-ω-monomethyl-L-arginine acetate],"X, E",8.49,–,–,–
"CN/C(=N/CCSCc1nc[nH]c1C)NC#N [Cimetidine, 2-cyan-1-methyl-3-[2-(5-methylimidazol-4-ylmethylsulfanyl)-ethyl]-guanidine, reference compound]","X, E",9.54,239,67.2,Dissolved (H2O) [2]: ((X)); logP (physchem): 0.19
C[C@H](NC(=O)[C@H](Cc1ccccc1)NC(=O)[C@@H](N)CCCNC(=N)N)C(=O)O [Arg-Phe-Ala acetate] (H-Arg-Phe-Ala-OH; N-terminus and C-terminus assumed),–,–,–,–,logP: -3.6
"NC(N)=NS(=O)(=O)c1ccc(N)cc1 [Sulfaguanidine, 4-amino-N-(diaminomethylen)benzensulfonamide, reference compound]","X, S",–,–,–,logP (physchem): -1.24
"NCC(=O)N[C@@H](Cc1ccccc1)C(=O)O [Gly-Phe, reference compound] (H-Gly-Phe-OH; N-terminus and C-terminus assumed)",–,–,–,–,logP [5]: -0.65
NC(N)=NCCCC[C@H](N)C(=O)O [H-Homoarg-OH],"X, E",8.66,107,68.5,–
"N=C(N)NCCC[C@H](NC(=O)[C@@H](N)Cc1ccc(O)cc1)C(=O)O [Tyr-Arg (Kyotorphin acetate), L-tyrosyl-L-arginine]","X, E",8.54,–,–,logP (physchem): -4
"NC(N)=O [Urea, reference compound]",–,8.59,341,96.3,Interaction with Oleic Acid ([1]; 60° C.): ((X))
"CC(=O)NCC(=O)O.CC(=O)NCC(=O)O.N=C(N)c1ccc(N=NNc2ccc(C(=N)N)cc2)cc1 [Diminazene aceturate (basic), Diminazene aceturate, reference compound]","X, S, (E)",–,426,60.7,–
c1c[nH]cn1 [Imidazole],–,–,–,–,logP (physchem): -0.67
C[C@@H](O)[C@H](N)C(=O)N[C@@H](CCCCN)C(=O)N1CCC[C@H]1C(=O)N[C@@H](CCCNC(=N)N)C(=O)O [Thr-Lys-Pro-Arq (Tuftsin)] (H-TKPR-OH; N-terminus and C-terminus assumed),–,–,–,–,logP: -3.98
N=C(N)NCCCC(=O)O [4-Guanidinobutyric acid],"X, E",10.41,–,–,logP (physchem): -3.44
Cl.N=C(N)NC[C@H](N)C(=O)O [L-2-Amino-3-guanidinopropionic acid hydrochloride],"X, E",11.05,113,87.2,logP (physchem): -3.81
Argininosuccinic acid disodium salt hydrate,"X, E",9.93,721,74.6,–
N=C(N)NCCC[C@H](N)C(=O)N[C@@H](Cc1ccccc1)C(=O)O [Arg-Phe],–,–,–,–,logP [5]: -3.34
N=C(N)N [Guanidinehydrochloride],"X, E",12.71,–,–,logP (physchem): -1.03
NCC(=O)N[C@@H](Cc1c[nH]cn1)C(=O)O [Gly-His] (H-Gly-His-OH; N-terminus and C-terminus assumed),–,–,–,–,logP: -2.42
"CN(C)C(=N)NC(=N)N.Cl [1,1-Dimethylbiguanide hydrochloride, reference compound]",–,9.20,–,–,–
N=C(N)NCCC(=O)O [3-Guanidinopropionic acid],"X, E",11.71,153,64.7,logP (physchem): -3.77
NC(=NCCC[C@H](N)C(=O)O)N[N+](=O)[O-] [N-ω-Nitro-L-arginine],"X, E",11.95,85.5,46.7,–
NC(N)=NOCC[C@H](N)C(=O)O [L-Canavanine free base],"(X), S, E and X, E",8.67 and 9.04,–,–,–
Cl.N=C(N)Nc1ccc(C(=O)O)cc1 [4-Guanidinobenzoic acid hydrochloride],"X, E",11.19,–,–,"Dissolved (H2O) [2]: (X); logP [5, 6]: 0.604"
COC(=O)[C@H](N)CCCNC(=N)N.Cl.Cl [D-arginine methyl ester dihydrochloride],"X, S",11.35,–,–,logP (physchem): -2.11

Compound,Interaction with Oleic Acid [1],pH [3],Mean Size by Intensity [4] [nm],Part [4] [%],also measured
"O=C(O)CCCNC1=NCCN1 [4-(4,5-Dihydro-1H-imidazol-2-ylamino)-butyric acid]","X, E",8.63 and 11.5,627,58.9,"logP [5, 6]: -1.6"
N=C(N)NCCCCCC(=O)O [6-Guanidinohexanoic acid],"(X), E",9.01,–,–,"Dissolved (H2O) [2]: (X); logP [5, 6]: -3.6"
C[C@@H](N[C@@H](CCCN=C(N)N)C(=O)O)C(=O)O [D-(+)-Octopine],"X, E",6.70,435,94.7,–
CN(CC(=O)O)C(=N)N [Creatine],"(X), E",–,–,–,logP (physchem): -0.884
"CC(=O)O.CC(=O)O.N=C(NCCCCCCNC(=N)NC(=N)Nc1ccc(Cl)cc1)NC(=N)Nc1ccc(Cl)cc1 [Chlorhexidine diacetate, 1,1′-hexamethylenbis[5-(4-chlorphenyl)-biguanide], reference compound]","X, S",6.51 and 9.58,–,–,Dissolved (H2O) [2]: (X)
NCCCC[C@H](N)C(=O)N[C@@H](CCCN=C(N)N)C(=O)O [Lys-Arq acetate] (H-Lys-Arg-OH),–,–,–,–,logP: -5.06
"CN/C(=N\[N+](=O)[O-])NCc1cnc(Cl)s1 [Clothianidine, (E)-1-(2-chlor-1,3-thiazol-5-ylmethyl)-3-methyl-2-nitroguanidine]","X, E",9.81,153,53.9,Dissolved (H2O) [2]: (X); logP [5]: -2.03
"[H]/N=C(\N/C(=N/[H])Nc1ccc(Cl)cc1)NC(C)C [Proguanil hydrochloride, 1-(4-chlorphenyl)-5-isopropylbi-guanide, reference compound]","X, E",7.66,–,–,"Dissolved (H2O) [2]: (X); logP [5, 6]: 2.53"
"polyhexamethylenbiguanide (PHMB) [Polyhexanide −5% (2300 bis 3100 MW), reference compound]","X, S",5.61 and 8.61,–,–,–
N=C(N)NCCC[C@H](NC(=O)[C@@H](N)Cc1c[nH]cn1)C(=O)O [His-Arg] (H-His-Arg-OH; N-terminus and C-terminus assumed),–,–,–,–,logP: -5.74
N=C(N)NCCC[C@H](NC(=O)CN)C(=O)O [Gly-Arg] (H-Gly-Arg-OH; N-terminus and C-terminus assumed),–,–,–,–,logP: -5.06
"CC(=O)NC1CCSC1=O (racemic) [DL-N-Acetylhomocysteine thiolactone, reference compound]",–,10.70,–,–,–
"CN(C)C(N)=NCCC[C@H](N)C(=O)O.Cl.Cl [NG,NG-Dimethylarginine dihydrochloride]","X, E",9.45,22.9,87.4,–
Cc1ccccc1NC(=N)NC(=N)N [1-(o-Tolyl)biguanide],"X, E",11.53,850,95.5,"Dissolved (H2O) [2]: (X); logP [5, 6]: 1.41"
Aminophenylacetic acid [reference compound],((X)),9.23,–,–,Dissolved (H2O) [2]: (X); log P [5]: 0.73
Poly-L-arginine HCl [Poly-L-arginine HCl (70.000-150.000 MW)],"X, S",–,–,–,–
N=C(N)NCCCCN.O=S(=O)(O)O [Agmatin sulfate],"X, S",10.53,–,–,logP (physchem): -1.81
NC(=NCC[C@H](N)C(=O)O)NO [N-ω-Hydroxy-L-norarginine],"X, E, S",9.51,325,93.9,–
Cc1c[nH]cn1,"X, E/S",8.90,224,96.7,–
N=C(N)N[C@@H](CCC(=O)O)C(=O)O [(S)-(−)-2-Guanidinoglutaric acid],"X, E",10.15,–,–,"logP [5, 6]: -3.14"
N=C(N)NC(N)=O.O.O=S(=O)(O)O [N-Guanylurea sulfate salt hydrate],"X, E",–,–,–,logP (physchem): 3.54
CC(=N)NCCCC[C@H](N)C(=O)O [L-NIL],"X, E",9.12,349,94.1,–
NC(N)=NCC(=O)O [Guanidine acetic acid],"(X), E/S",6.20,–,–,Dissolved (H2O) [2]: ((X)); log P [5]: −2.387
"Cc1ccccc1NC(=N)Nc1ccccc1C [1,3-Di-o-tolyl-guanidine]",–,–,–,–,"logP [5, 6]: 3.01"
